Test results reported in patent publication EP4817617A1, “LIPOSOME AGENT, NKT CELL ACTIVATOR, PHARMACEUTICAL COMPOSITION, AND USES OF THESE” (Ambicion Co., Ltd., priority 2023, dated 2025).

Tested on: triple-negative breast cancer 4T1 cells
Experiment: Antitumor effect of α-GalCer liposome against breast cancer by repetitive subcutaneous administration
Format: in vivo, BALB/c mouse
Settings: s.c. left flank, 4 times every 5 days, α-GalCer 15 µg; n=2 shown
Method: The following liposome samples prepared using PBS in Example 1 were used. • (1-2) 50% α-GalCer / negatively charged PEG terminal -OH liposome, 100 nm • (1-11) 0% control / negatively charged PEG terminal -OH liposome, 100 nm The liposome samples were adjusted to a PEGylated liposome concentration of 1 mg/mL (in terms of total lipids), and used as administration samples. PBS was used for the adjustment of the PEGylated liposome concentration. The administration sample prepared from the aforementioned (1-2) was used as the α-GalCer liposome administration sample of the Example (αGal lipo), and the administration sample prepared from the aforementioned (1-11) was used as the control liposome administration sample (Ctrl lipo). In addition, a free GalCer sample (Free αGal) in which free α-GalCer not formulated into a liposome was suspended in PBS, and PBS, were each used as administration samples.
As breast cancer cells, triple-negative breast cancer 4T1 cells were used. 4T1 cells (5.0×10^5 to 1.0×10^6 cells/mouse) were subcutaneously inoculated into the vicinity of the second teat from the top of the left chest of a BALB/c mouse (5 weeks old, female, n=2). When the average tumor volume reached 40 to 100 mm^3, the mice were randomly divided into groups. Then, the administration sample was subcutaneously injected into the left flank of the mouse (Day 0). […]

Compound: CCCCCCCCCCCCCCCCCCCCCCCCCC(=O)N[C@@H](CO[C@H]1O[C@H](CO)[C@H](O)[C@H](O)[C@H]1O)[C@H](O)[C@H](O)CCCCCCCCCCCCCC [α-GalCer, (2S,3S,4R)-1-O-(α-D-galactopyranosyl)-2-hexacosanoylamino-1,3,4-octadecanetriol]
- increase in tumor volume: suppressed
